Laboratory results from PMC7582737, “Melanocortin Receptor 4 (MC4R) Signaling System in Nile Tilapia” (International Journal of Molecular Sciences, 2020).

Tests used:
MC4R = test system: MC4R; set-up: method as in PMID 24085819, PMID 31398355, PMID 31299224, PMID 32922362; conditions: mammalian peptides; cited from earlier work
[1] = biological target: tilapia melanocortin receptor 4 (MC4R), N-terminally 3xFlag-tagged (Nile tilapia (Oreochromis niloticus))
zebrafish = conditions: ip/icv injection of MC4R agonist; cited from earlier work
rainbow trout = conditions: cited from earlier work
goldfish = conditions: cited from earlier work
Text: In the brain, all genes were detected to be highly or moderately expressed. This finding is consistent with previous reports in teleosts, such as zebrafish and medaka, in which all the genes are expressed in the brain as detected by qRT-PCR assays.

tilapia MC4R + MRAP2b = conditions: HEK293 cells; cited from earlier work
Text: The presence of all MC4R signaling components in tilapia led us to further examine their interaction in vitro. […] Our finding partly agrees with recent findings in spotted gar, tilapia, topmouth culter, and zebrafish, showing that MC4R could be activated by mam ...

[2] = biological target: tilapia melanocortin receptor 4 (MC4R), N-terminally 3xFlag-tagged (Nile tilapia (Oreochromis niloticus)); remark: listed apart in the source
[3] = ip/icv injection of MC4R agonist

Row | EC50 of activating the cAMP/PKA signaling pathway (pGL3-CRE-luciferase reporter) in CHO cells expressing tilapia MC4R in the presence of MRAP2b [2] | EC50 of activating the cAMP/PKA signaling pathway (pGL3-CRE-luciferase reporter) in CHO cells expressing tilapia MC4R, without MRAP2b [2] | Molecule | activation of MC4R, relative potency (in words) (MC4R) | other results
1 | – | – | NDP-α-MSH | with similar potencies | –
2 | – | – | tilapia melanocortin-2 receptor accessory protein 2b (MRAP2b), N-terminally Myc-tagged (natural protein) | – | sensitivity and selectivity of MC4R for ACTH(1-40) with MRAP2b co-expressed, against MC4R alone (EC50 0.246 nM vs. 0.032 nM; pGL3-CRE-luciferase reporter, CHO cells) [1]: 8 fold
3 | – | – | MTII | – | effect on feeding, zebrafish (zebrafish): reduce the feeding; effect on feeding, rainbow trouts (rainbow trout; [3]): reduce the feeding; effect on feeding, goldfish (goldfish; [3]): reduce the feeding
4 | – | – | ACTH1-39 | with similar potencies | effect of MRAP2b on EC50 value in activating tilapia MC4R (tilapia MC4R + MRAP2b): cannot significantly alter the EC50 value
5 | – | – | ACTH1-24: mammalian ACTH1-24 (cited) | with similar potencies | –
6 | – | – | HS024 | – | effect on food intake, rainbow trout (rainbow trout; injection of MC4R antagonist): stimulate food intake; effect on food intake, goldfish (goldfish; injection of MC4R antagonist): stimulate food intake
7 | 0.572 nM | 0.421 nM | DGSYKMKHFRWSGPPAS [tilapia β-MSH (derived from the POMCa1 precursor)] | – | –
8 | 32 pM | 0.246 nM | SYSMEHFRWGKPVGRKRRPVKVYTSNGVAEESAEVFPEEM [tilapia ACTH(1-40) (derived from the POMCa1 precursor)] | – | –
9 | 0.786 nM | 0.955 nM | Ac-SYSMEHFRWGKPV-NH2 [tilapia α-MSH (acetyl-α-MSH with an amidated C-terminus; derived from the POMCa1 precursor)] | – | –
